Results: patent publication US20210038579A1, “Treatment Of Patients With Classic Fabry Disease” (Amicus Therapeutics, Inc., priority 2018, published 2021)
Changes are numbered by the printed parent chain.

Key:
Assay in all cases: HEK assay: α-Gal A activity in HEK-293 cell lysate with migalastat
Assay type in all cases: cell-based
[1] = molecular target: T1, α-Gal A mutant form p.Arg112His (c.335 G > A) (Homo sapiens, UniProt P06280, R112H)
T1 construct: expressed in transfected cells; host or cells: HEK-293
T1 sequence (P06280 32-429 R112H): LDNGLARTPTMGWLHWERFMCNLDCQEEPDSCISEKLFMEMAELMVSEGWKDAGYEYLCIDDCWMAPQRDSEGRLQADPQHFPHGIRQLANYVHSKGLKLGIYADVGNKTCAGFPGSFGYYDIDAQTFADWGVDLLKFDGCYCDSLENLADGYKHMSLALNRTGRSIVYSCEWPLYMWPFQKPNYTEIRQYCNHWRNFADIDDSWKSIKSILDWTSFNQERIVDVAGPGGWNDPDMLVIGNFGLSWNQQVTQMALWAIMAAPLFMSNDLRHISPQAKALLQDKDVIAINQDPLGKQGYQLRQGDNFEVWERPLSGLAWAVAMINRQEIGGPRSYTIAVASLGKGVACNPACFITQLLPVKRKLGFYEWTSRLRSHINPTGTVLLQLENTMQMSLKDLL
Protocol: (§1) Such mutations are also referred to herein as “HEK assay amenable” mutations.
(§2) In this assay, cDNA constructs are created. The corresponding α-Gal A mutant forms are transiently expressed in HEK-293 cells. Cells are then incubated±migalastat (17 nM to 1 mM) for 4 to 5 days. After, α-Gal A levels are measured in cell lysates using a synthetic fluorogenic substrate (4-MU-α-Gal) or by western blot. This has been done for known disease-causing missense or small in-frame insertion/deletion mutations.

[2] = molecular target: T2, α-Gal A mutant form p.Asp244Asn (c.730 G > A) (Homo sapiens, UniProt P06280, D244N)
T2 construct: expressed in transfected cells; host or cells: HEK-293
T2 sequence (P06280 32-429 D244N): T1 sequence (P06280 32-429 R112H) with H81R, D213N
Protocol: as §1, §2

[3] = molecular target: T3, α-Gal A mutant form p.Gly373Ser (c.1117 G > A) (Homo sapiens, UniProt P06280, G373S)
T3 construct: expressed in transfected cells; host or cells: HEK-293
T3 sequence (P06280 32-429 G373S): T1 sequence (P06280 32-429 R112H) with H81R, G342S
Protocol: as §1, §2

[4] = molecular target: T4, α-Gal A mutant form p.Cys174Arg (c.520 T > C) (Homo sapiens, UniProt P06280, C174R)
T4 construct: expressed in transfected cells; host or cells: HEK-293
T4 sequence (P06280 32-429 C174R): T1 sequence (P06280 32-429 R112H) with H81R, C143R
Protocol: as §1, §2

[5] = molecular target: T5, α-Gal A mutant form p.Leu300Pro (c.899 T > C) (Homo sapiens, UniProt P06280, L300P)
T5 construct: expressed in transfected cells; host or cells: HEK-293
T5 sequence (P06280 32-429 L300P): T1 sequence (P06280 32-429 R112H) with H81R, L269P
Protocol: as §1, §2

[6] = +10 μM migalastat, HEK-293 cell lysate, mean ± SEM, n = 20
[7] = HEK293, 10 μM migalastat minus baseline, read-out: Absolute increase at 10 μM (% WT)

OC[C@H]1NC[C@H](O)[C@@H](O)[C@H]1O [migalastat]
α-Gal A activity at 10 μM (fold over baseline) ([1]; 10 μM migalastat): 6.61 fold over baseline | +Migalastat α-Gal A activity [1, 6]: 5583 ± 215 nmol/mg/h | +Migalastat α-Gal A activity % WT [1, 6]: 17.4 ± 0.8 % WT | activation at 10 µM [1, 7]: 14.8% | α-Gal A activity at 10 μM (fold over baseline) ([2]; 10 μM migalastat): 1.58 fold over baseline | +Migalastat α-Gal A activity [2, 6]: 16321 ± 402 nmol/mg/h | +Migalastat α-Gal A activity % WT [2, 6]: 48.7 ± 1.7 % WT | activation at 10 µM [2, 7]: 17.8% | α-Gal A activity at 10 μM (fold over baseline) ([3]; 10 μM migalastat): 3.32 fold over baseline | +Migalastat α-Gal A activity [3, 6]: 5128 ± 288 nmol/mg/h | +Migalastat α-Gal A activity % WT [3, 6]: 15.7 ± 0.8 % WT | activation at 10 µM [3, 7]: 10.9% | α-Gal A activity at 10 μM (fold over baseline) ([4]; 10 μM migalastat): 3.53 fold over baseline | +Migalastat α-Gal A activity [4, 6]: 16505 ± 393 nmol/mg/h | +Migalastat α-Gal A activity % WT [4, 6]: 51.6 ± 2.0 % WT | activation at 10 µM [4, 7]: 37.4% | α-Gal A activity at 10 μM (fold over baseline) ([5]; 10 μM migalastat): 10.35 fold over baseline | +Migalastat α-Gal A activity [5, 6]: 13219 ± 412 nmol/mg/h | +Migalastat α-Gal A activity % WT [5, 6]: 37.9 ± 1.2 % WT | activation at 10 µM [5, 7]: 34.2%
